According to publication PMC9535023, “Inhibition of phospholipase D1 induces immunogenic cell death and potentiates cancer immunotherapy in colorectal cancer” (Experimental & Molecular Medicine, 2022):

Columns and labels:
HCT 116 cells = assay: Immunoblotting of β-catenin and its target genes; type: cell-based; settings: time- and dose-dependent, 1% serum
Method: As previously described, lysates from cells or colorectal cancer (CRC) tissues were analyzed by immunoprecipitation, and/or Western blotting was performed as described previously. The antibodies used are listed in Supplementary Table 5. A polyclonal anti-PLD antibody that recognizes both PLD1 and PLD2 was generated, as previously described. The use of human CRC tissue samples was approved by the Institutional Review Board of Pusan National University, Korea (PNU IRB/2011-6).

DLD1 cells = assay: Sphere formation assay; type: cell-based; settings: limiting dilution assays
Method: DLD1 cells were cultured in DMEM/F-12 with epidermal growth factor (20 ng/mL), basic fibroblast growth factor (20 ng/mL), and B27 supplements in noncoated dishes. For serial passaging, the sphere cells were dissociated into single cells with Accutase (Invitrogen) once every 4–7 days and incubated. After the secondary generation, the DLD1 sphere cells were used for the experiments. […] The cells were fixed with 4% paraformaldehyde, and sphere formation was calculated from 10 positions in each well by an Olympus BX53 microscope and cellSens image acquisition software (Olympus).

[1] = tested on: AOM/DSS-induced mouse colon cancer; assay: AOM/DSS-induced colitis-associated CRC model; type: in vivo; settings: AOM/DSS mice, 10 mg/kg
Method: Supplementary materials and methods […]
The AOM/DSS colorect al cancer model was est ablished using 6 -weeks-old C57BL/6 male mice (Koat ech). Mice were given a single intraperitoneal (IP) injection of the mutagen AOM (10 mg/kg), aft er whi ch t hey were given three periods drinking water contai ning 2.5% DSS for 5 days, followed by 15 days of normal water. AOM/DSS-induced mice were given either vehicle (PBS containing 8% DMSO and 1% Tween 80) or 10 mg/kg A3373 compound every day by oral administration for 45 days. […]

Compound: O=C(Nc1cc(C(F)(F)F)cc(C(F)(F)F)c1)c1cc2cc(F)ccc2[nH]1 [Compound A3373]
- protein levels of β-catenin and its target genes (PLD1, CD133, CD44, c-Myc, cyclin D1) (HCT 116 cells): greatly reduced the protein levels of β-catenin and its target genes
- sphere-forming capacity (DLD1 cells): significantly decreased the sphere-forming capacity
- CD8 expression (IHC) [1]: increased the expression level of CD8
- active caspase-3, Ki67 and CD31 in tumor tissues (IHC) [1]: increased the level of active caspase-3 and decreased the levels of Ki67 and CD31
- do not eat-me and eat-me signals in tumor tissues (IHC) [1]: decreased the expression of “do not eat-me” signals but increased that of “eat-me” signals
- immune checkpoints (PD1, B7H4) and Foxp3 (IHC) [1]: reduced the expression of immune checkpoints (PD1 and B7H4) and Foxp3
- mortality [1]: significantly lower
- number of intestinal polyps [1]: significantly lower
- tumor formation [1]: attenuated the tumor formation
- β-catenin and downstream target proteins (IHC) [1]: suppressed the levels of β-catenin and its downstream target proteins
